# pIC50: −log10 of the molar value. Like-named read-outs stand apart in the source and are kept apart here.
# Tests used:
# [1] = system: E. multilocularis metacestodes; test: PGI-assay: drug-induced damage on in vitro cultured metacestodes (Pathogen Box screening cascade and EC50); assay type: cell-based, Echinococcus multilocularis; conditions: for activity in the screen at 10 μM (confirmed in triplicates, >20% relative PGI release): 5 and 12 days; for cytotoxicity at 10 µM / PGI release, % of Tx-100 control at 10 µM: Echinococcus multilocularis; for cytotoxicity at 10 µM / PGI release, % of the Tx-100 control, 5d / PGI release, % of the Tx-100 control, 12d: singlets, 10 µM; for activity in the screen at 10 μM (confirmed in triplicates, >20% relative PGI release) / activity in the present in vitro screen (threshold 20% relative activity compared to Tx-100): 10 μM
# [2] = system: E. multilocularis metacestodes; conditions: cited from earlier work; for effect in vitro against E. multilocularis metacestodes: ref Reuter et al.
# [3] = 1 µM, triplicates, 5 days of incubation
# [4] = 1 µM, triplicates, 12 days of incubation
# [5] = 120 h, 5 days of incubation, read-out: PGI release, % of the Tx-100 control, 5d
# [6] = 120 h, confirmatory screening at 10 µM in triplicates, 5 days of incubation, values as % of Tx-100 control, read-out: PGI release, % of Tx-100 control, average, 5d
# [7] = 288 h, 12 days of incubation, read-out: PGI release, % of the Tx-100 control, 12d
# [8] = 288 h, confirmatory screening at 10 µM in triplicates, 12 days of incubation, values as % of Tx-100 control, read-out: PGI release, % of Tx-100 control, average, 12d
# [9] = confirmatory screening at 10 µM in triplicates, 5 days of incubation, values as % of Tx-100 control
# [10] = confirmatory screening at 10 µM in triplicates, 12 days of incubation, values as % of Tx-100 control
compound,measurement,setting,value
"OC(c1cc(C(F)(F)F)nc2c(C(F)(F)F)cccc12)C1CCCCN1 (centres unmarked) [MMV000016, Mefloquine, reference compound]","PGI release, % of Tx-100 control, average, 5d",[1]; [3],0.24%
same,"PGI release, % of Tx-100 control, average, 12d",[1]; [4],8.91%
same,"activity in the screen at 10 μM (confirmed in triplicates, >20% relative PGI release)",[1],active
same,"activity in the screen at 10 μM (confirmed in triplicates, >20% relative PGI release)",[1]; listed as Mefloquine,identified in our screening
same,cytotoxicity at 10 µM,[1]; [5],16.9%
same,"PGI release, % of Tx-100 control at 10 µM",[1]; [6],7.4%
same,cytotoxicity at 10 µM,[1]; [7],23.3%
same,"PGI release, % of Tx-100 control at 10 µM",[1]; [8],47.4%
same,pIC50,"[2]; ref Stadelmann et al., 2011, Küster et al., 2011, 2015, Rufener et al., 2018, read-out: IC50 value against this parasite in vitro",< 4.52
"COC(=O)Nc1nc2ccc(C(=O)c3ccccc3)cc2[nH]1 [MMV003152, Mebendazole, reference compound]",cytotoxicity at 10 µM,[1]; [5],1.28%
same,cytotoxicity at 10 µM,[1]; [7],11.9%
same,concentration inhibiting parasite proliferation,"[2]; three weeks treatment, ref Jura et al., 1998",1 µM
"CO[C@H]1/C=C/O[C@@]2(C)Oc3c(C)c(O)c4c(O)c(c(/C=N/N5CCN(C)CC5)c(O)c4c3C2=O)NC(=O)/C(C)=C\C=C\[C@H](C)[C@H](O)[C@@H](C)[C@@H](O)[C@@H](C)[C@H](OC(C)=O)[C@@H]1C [MMV688775, Rifampicin, reference compound]",activity in the present in vitro screen (threshold 20% relative activity compared to Tx-100),[1],inactive
same,cytotoxicity at 10 µM,[1]; [5],-0.7%
same,cytotoxicity at 10 µM,[1]; [7],-1.35%
same,effect in vitro against E. multilocularis metacestodes,[2]; 2006,ineffective
"CCCCCCCCCCCCCCCCOP(=O)([O-])OCC[N+](C)(C)C [MMV688990, Miltefosine, reference compound]",activity in the present in vitro screen (threshold 20% relative activity compared to Tx-100),[1],inactive
same,cytotoxicity at 10 µM,[1]; [5],-1.11%
same,cytotoxicity at 10 µM,[1]; [7],-5.17%
same,effect in vitro against E. multilocularis metacestodes,[2]; 2006,ineffective
"CC(=O)Oc1ccccc1C(=O)Nc1ncc([N+](=O)[O-])s1 [MMV688991, Nitazoxanide, reference compound]",activity against metacestodes at 1 μM,"[1]; 1 μM, triplicates",did not maintain its activity
same,"PGI release, % of Tx-100 control, average, 5d",[1]; [3],1.35%
same,"PGI release, % of Tx-100 control, average, 12d",[1]; [4],11.08%
same,"activity in the screen at 10 μM (confirmed in triplicates, >20% relative PGI release)",[1],active
same,cytotoxicity at 10 µM,[1]; [5],57.7%
same,"PGI release, % of Tx-100 control at 10 µM",[1]; [6],54.7%
same,cytotoxicity at 10 µM,[1]; [7],75.5%
same,"PGI release, % of Tx-100 control at 10 µM",[1]; [8],71.7%
same,concentration shown to be active in vitro against metacestodes,"[2]; ref Stettler et al., 2003, Reuter et al., 2006",3.3 µM
"C[C@@H]1[C@H](O)[C@@H](C)/C=C/C=C/C=C/C=C/C=C/C=C/C=C/[C@H](O[C@@H]2O[C@H](C)[C@@H](O)[C@H](N)[C@@H]2O)C[C@@H]2O[C@](O)(C[C@@H](O)C[C@@H](O)[C@H](O)CC[C@@H](O)C[C@@H](O)CC(=O)O[C@H]1C)C[C@H](O)[C@H]2C(=O)O [MMV689000, Amphotericin B, reference compound]",cytotoxicity at 10 µM,[1]; [5],34.2%
same,"PGI release, % of Tx-100 control at 10 µM",[1]; [6],-1.34%
same,cytotoxicity at 10 µM,[1]; [7],51.2%
same,"PGI release, % of Tx-100 control at 10 µM",[1]; [8],2.75%
same,concentration shown to destroy metacestodes in vitro,"[2]; ref Reuter et al., 2003, 2010",2.7 µM
Clc1ccc(CN2CCN(C3=NCCN3)CC2)cc1Cl [MMV689060],"PGI release, % of the Tx-100 control, 5d",[1]; 5 days of incubation,0.33%
same,"PGI release, % of the Tx-100 control, 12d",[1]; 12 days of incubation,-1.23%
CC(=O)Nc1ccc(-c2noc(CC3CCCN(Cc4cccc(F)c4C)C3)n2)cc1 (centres unmarked) [MMV689061],"PGI release, % of the Tx-100 control, 5d",[1]; 5 days of incubation,2.22%
same,"PGI release, % of the Tx-100 control, 12d",[1]; 12 days of incubation,1.98%
FC(F)(F)c1ccc(N(c2cccnc2)C2CCN(c3ccc(C(F)(F)F)cn3)CC2)cc1 [MMV689243],"PGI release, % of the Tx-100 control, 5d",[1]; 5 days of incubation,0.34%
same,"PGI release, % of the Tx-100 control, 12d",[1]; 12 days of incubation,10.04%
O=C([C@@H](c1ccc(Cl)cc1)c1cccnc1)N1CCN(c2ccc(C(F)(F)F)cc2)CC1 [MMV689244],"PGI release, % of the Tx-100 control, 5d",[1]; 5 days of incubation,-0.13%
same,"PGI release, % of the Tx-100 control, 12d",[1]; 12 days of incubation,-0.53%
"Nc1ncnc2c1ncn2C[C@@H](O)[C@@H](O)C(=O)O [MMV689255, Eritadenine]",cytotoxicity at 10 µM,[1]; [5],0.0047%
same,cytotoxicity at 10 µM,[1]; [7],0.51%
CC(c1cc(Cl)cc(Cl)c1)N(C)c1ncc2c(N)nc(N)nc2n1 (centres unmarked) [MMV689437],"PGI release, % of the Tx-100 control, 5d",[1]; 5 days of incubation,4.64%
same,"PGI release, % of the Tx-100 control, 12d",[1]; 12 days of incubation,4.83%
CNc1cc(C)nc(C2CN(C(=O)c3n[nH]c4ccccc34)CCO2)c1 (centres unmarked) [MMV689709],"PGI release, % of the Tx-100 control, 5d",[1]; 5 days of incubation,-5.26%
same,"PGI release, % of the Tx-100 control, 12d",[1]; 12 days of incubation,58.81%
same,"PGI release, % of Tx-100 control, average, 5d",[1]; [9],-0.32%
same,"PGI release, % of Tx-100 control, average, 12d",[1]; [10],-0.96%
"COc1nc2ccc(Br)cc2cc1[C@@H](c1ccccc1)[C@@](O)(CCN(C)C)c1cccc2ccccc12 [MMV689758, Bedaquiline, reference compound]",cytotoxicity at 10 µM,[1]; [5],2.07%
same,cytotoxicity at 10 µM,[1]; [7],-3.22%
COc1ccc(C2=NN(C3CCCCCC3)C(=O)[C@@H]3CC=CC[C@H]23)cc1OCCCCOc1ccc(-c2nn[nH]n2)cc1 [MMV690027],"PGI release, % of the Tx-100 control, 5d",[1]; 5 days of incubation,9.58%
same,"PGI release, % of the Tx-100 control, 12d",[1]; 12 days of incubation,27.83%
same,"PGI release, % of Tx-100 control, average, 5d",[1]; [9],0.20%
same,"PGI release, % of Tx-100 control, average, 12d",[1]; [10],0.24%
COc1ccc(C2=NN(C3CCCCCC3)C(=O)C2(C)C)cc1OCCCCOc1ccc(-c2nn[nH]n2)cc1 [MMV690028],"PGI release, % of the Tx-100 control, 5d",[1]; 5 days of incubation,2.30%
same,"PGI release, % of the Tx-100 control, 12d",[1]; 12 days of incubation,6.47%
COc1ccc(Oc2ccc([C@@H](C)N(C)c3ncc4c(N)nc(N)nc4n3)cc2)cc1 [MMV690102],"PGI release, % of Tx-100 control, average, 5d",[1]; [3],-0.29%
same,"PGI release, % of Tx-100 control, average, 12d",[1]; [4],5.50%
same,"activity in the screen at 10 μM (confirmed in triplicates, >20% relative PGI release)",[1],active
same,"PGI release, % of the Tx-100 control, 5d",[1]; 5 days of incubation,73.64%
same,"PGI release, % of the Tx-100 control, 12d",[1]; 12 days of incubation,91.71%
same,"PGI release, % of Tx-100 control, average, 5d",[1]; [9],25.36%
same,"PGI release, % of Tx-100 control, average, 12d",[1]; [10],31.53%
C[C@H](c1ccc2c(c1)CCCC2)N(C)c1ncc2c(N)nc(N)nc2n1 [MMV690103],"PGI release, % of the Tx-100 control, 5d",[1]; 5 days of incubation,-3.58%
same,"PGI release, % of the Tx-100 control, 12d",[1]; 12 days of incubation,41.60%
same,"PGI release, % of Tx-100 control, average, 5d",[1]; [9],-0.48%
same,"PGI release, % of Tx-100 control, average, 12d",[1]; [10],4.22%
CCc1ccc(C(NCc2nc(N)nc(N(C)C)n2)C(C)C)cc1 (centres unmarked) [MMV1019989],"PGI release, % of the Tx-100 control, 5d",[1]; 5 days of incubation,0.39%
same,"PGI release, % of the Tx-100 control, 12d",[1]; 12 days of incubation,-3.04%
O=C(Nc1nc(-c2ccccn2)cs1)C1CC1c1ccccc1F (centres unmarked) [MMV1028806],"PGI release, % of the Tx-100 control, 5d",[1]; 5 days of incubation,-2.32%
same,"PGI release, % of the Tx-100 control, 12d",[1]; 12 days of incubation,-0.32%
CNC(=O)CNc1nc(-c2ccccn2)nc2scc(-c3ccccc3)c12 [MMV1029203],"PGI release, % of the Tx-100 control, 5d",[1]; 5 days of incubation,-5.65%
same,"PGI release, % of the Tx-100 control, 12d",[1]; 12 days of incubation,6.41%
CCCn1c(NC(=O)c2ccc3ccccc3n2)nc2ccccc21 [MMV1030799],"PGI release, % of the Tx-100 control, 5d",[1]; 5 days of incubation,3.64%
same,"PGI release, % of the Tx-100 control, 12d",[1]; 12 days of incubation,13.68%
CCNC(=O)C(C)Nc1nc(-c2cccnc2)nc2sc(C)c(C)c12 (centres unmarked) [MMV1037162],"PGI release, % of the Tx-100 control, 5d",[1]; 5 days of incubation,0.19%
same,"PGI release, % of the Tx-100 control, 12d",[1]; 12 days of incubation,-2.69%
Cc1ccc(-c2nc(CN(Cc3ccccn3)C(C)C)cs2)o1 [MMV1088520],"PGI release, % of the Tx-100 control, 5d",[1]; 5 days of incubation,-5.44%
same,"PGI release, % of the Tx-100 control, 12d",[1]; 12 days of incubation,-2.75%
COc1cccn2c(C(=O)N3CCCCC3)c(C(F)(F)F)nc12 [MMV1110498],"PGI release, % of the Tx-100 control, 5d",[1]; 5 days of incubation,-3.14%
same,"PGI release, % of the Tx-100 control, 12d",[1]; 12 days of incubation,0.63%
Cc1cc(OCC(=O)Nc2ccc(C(C)C)cc2)n(C)c(=O)c1C#N [MMV1198433],"PGI release, % of the Tx-100 control, 5d",[1]; 5 days of incubation,2.43%
same,"PGI release, % of the Tx-100 control, 12d",[1]; 12 days of incubation,-0.19%
CCOC(=O)c1noc(N)c1-c1ccccc1 [MMV1236379],"PGI release, % of the Tx-100 control, 5d",[1]; 5 days of incubation,3.51%
same,"PGI release, % of the Tx-100 control, 12d",[1]; 12 days of incubation,4.87%
"Levofloxacin (-)-ofloxacin [MMV687798, reference compound]","PGI release, % of the Tx-100 control, 5d",[1]; 5 days of incubation,-0.0541%
same,"PGI release, % of the Tx-100 control, 12d",[1]; 12 days of incubation,-0.33%

# Reference: PMC6216040, “Repurposing of an old drug: In vitro and in vivo efficacies of buparvaquone against Echinococcus multilocularis” (International Journal for Parasitology: Drugs and Drug …, 2018)
